As a reminder, the EC90 is the concentration needed for an effect of 90%.

The source of these data is US8697694B2, “Substituted pyridine and pyrimidine derivatives and their use in treating viral infections” (priority 2008, dated 2014).

One experiment deals with HCV replicon cells. In words: Cell-based HCV replicon assay (replicon RNA level by real time PCR, Taqman). The conditions noted are these: Hepatitis C virus, 72 h, HCV replicon cells, harvested day 3, replicon RNA by real time PCR; reported as range class; read-out: EC90 (μM) range. A digest of the protocol:
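Readout: ΔCT between NS5B replicon RNA and GAPDH by real-time RT-PCR in lysates harvested on day 3, fitted sigmoidally; EC50 at ΔCT=1, EC90 at ΔCT=3.2. Compounds tested at ten 2-fold dilutions from 25 μM to 1 μM start, 10% FBS, 0.5% DMSO.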
(In general: A replicon is a self-replicating genome or part of one, used to study replication in cells.)
For `CC(C)CNc1nc(Cl)c(-c2nc3ccccc3s2)c(N[C@@H]2C[C@H](CO)[C@@H](O)[C@H]2O)n1` [Example 320], the EC90 was less than 0.5 µM.

With `Nc1nc(Cl)c(-c2nc3c(Cl)cccc3s2)c(N[C@@H]2C[C@H](CO)[C@@H](O)[C@H]2O)n1` [Example 183], the 90% effect concentration (EC90) is 0.5 to 5 µM. The same measure, in the same setting: to `COCCCNc1nc(C)c(-c2nc3ccccc3s2)c(N[C@@H]2C[C@H](CO)[C@@H](O)[C@H]2O)n1` [Example 223] belongs less than 0.5 µM; to `COC[C@H]1C[C@@H](Nc2nc(N(C)C)nc(Cl)c2-c2nc3ccccc3s2)[C@@H]2OC(C)(C)O[C@H]12` [Example 120], more than 5 µM; to `Nc1nc(Cl)c(-c2ccccn2)c(N[C@@H]2C[C@H](CO)[C@@H](O)[C@H]2O)n1` [Example 157], more than 5 µM.

Take `Cc1nc(NCCC(F)(F)F)nc(N[C@@H]2C[C@H](CO)[C@@H](O)[C@H]2O)c1-c1nc2ccccc2s1` [Example 218]: the EC90 was less than 0.5 µM. On the same count and under the same terms, under `Nc1nc(Cl)c(-c2cc3cc(Cl)ccc3o2)c(N[C@@H]2C[C@H](CO)[C@@H](O)[C@H]2O)n1` [Example 165] stands more than 5 µM; under `Nc1nc(Cl)c(-c2cc3cc(C(=O)N4CCOCC4)ccc3o2)c(N[C@@H]2C[C@H](CO)[C@@H](O)[C@H]2O)n1` [Example 175], more than 5 µM.

Staying with this experiment, now noted: Hepatitis C virus, 72 h, HCV replicon cells, harvested on day 3, replicon RNA by real time PCR; calculated EC90 reported as range class; read-out: EC90 (μM) range.
Take `Cc1ccsc1CNc1nc(C)c(-c2nc3ccccc3s2)c(N[C@@H]2C[C@H](CO)[C@@H](O)[C@H]2O)n1` [Example 479]: the EC90 was less than 0.5 µM. Same read-out and setting: to `Cc1nc(NCc2ccccn2)nc(N[C@@H]2C[C@H](CO)[C@@H](O)[C@H]2O)c1-c1nc2ccccc2s1` [Example 465] belongs less than 0.5 µM; to `CCc1cc2cc(-c3c(C)nc(NCC(C)C)nc3N[C@@H]3C[C@H](CO)[C@@H](O)[C@H]3O)oc2cn1` [Example 519], less than 0.5 µM. On the same count and under the same terms, under `Cc1nc(CNc2nc(C)c(-c3nc4ccccc4s3)c(N[C@@H]3C[C@H](CO)[C@@H](O)[C@H]3O)n2)cs1` [Example 495] stands less than 0.5 µM. Regarding `CN(C)c1nc(N[C@@H]2C[C@H](CO)[C@@H](O)[C@H]2O)c(-c2nc3ccccc3s2)c(C2CC2)n1` [Example 416], the EC90 is 0.5 to 5 µM. Consider `COc1cc(CNc2nc(C)c(-c3nc4ccccc4s3)c(N[C@@H]3C[C@H](CO)[C@@H](O)[C@H]3O)n2)cc(OC)c1OC` [Example 711], for which the concentration for an effect of 90% (EC90) was less than 0.5 µM. As for `Cc1cc2cc(-c3c(C)nc(NCC(F)(F)F)nc3N[C@@H]3C[C@H](CO)[C@@H](O)[C@H]3O)oc2c(C)n1` [Example 457], the EC90 is less than 0.5 µM. Still for that read-out and setting: under `Cc1nc(NCc2ccsc2)nc(N[C@@H]2C[C@H](CO)[C@@H](O)[C@H]2O)c1-c1nc2ccccc2s1` [Example 331] stands less than 0.5 µM; under `CCc1cc2cc(-c3c(Cl)nc(NC(C)C)nc3N[C@@H]3C[C@H](CO)[C@@H](O)[C@H]3O)oc2cn1` [Example 502], less than 0.5 µM.

`CCCCCNc1nc(C)c(-c2nc3ccccc3s2)c(N[C@@H]2CC[C@H]3OC4(CCCCC4)O[C@@H]23)n1` [Example 332]: the EC90 was more than 5 µM. Still for that read-out and setting: under `Cc1nc(NCc2ncccn2)nc(N[C@@H]2C[C@H](CO)[C@@H](O)[C@H]2O)c1-c1nc2ccccc2s1` [Example 717] stands less than 0.5 µM; under `Cc1nc(NCc2nccs2)nc(N[C@@H]2C[C@H](CO)[C@H]3OC(C)(C)O[C@H]32)c1-c1nc2ccccc2s1` [Example 472], less than 0.5 µM; under `COc1cc(CNc2nc(C)c(-c3nc4ccccc4s3)c(N[C@@H]3C[C@H](CO)[C@@H](O)[C@H]3O)n2)cc(OC)c1` [Example 701], less than 0.5 µM.

The experiment is the same for the next values; noted with them: Hepatitis C virus, 72 h, HCV replicon cells, replicon RNA level by real time PCR (Taqman), day 3; calculated EC90; read-out: EC90 (μM) range.
On to `COc1cc(CCNc2nc(C)c(-c3nc4cnccc4s3)c(N[C@@H]3C[C@H](CO)[C@@H](O)[C@H]3O)n2)cc(OC)c1` [Example 2010], for which the EC90 was less than 0.5 µM. Same read-out and setting: to `Cc1nc(NCCc2ccc(C(C)(C)C)cc2)nc(N[C@@H]2C[C@H](CO)[C@H]3OC(C)(C)O[C@H]32)c1-c1nc2cnccc2s1` [Example 2011] belongs more than 5 µM.

The same experiment, now with this note: Hepatitis C virus, 72 h, HCV replicon cells, replicon RNA level by real time PCR (Taqman), harvested on day 3; calculated EC90 reported as range class; read-out: EC90 (μM) range.
On to `CCc1nccc2sc(-c3c(C)nc(N[C@H](C)c4ccc(C)cc4)nc3N[C@@H]3C[C@H](CO)[C@@H](O)[C@H]3O)nc12` [Example 1335], for which the EC90 was less than 0.5 µM.

For `Cc1nc(Nc2cc[nH]n2)nc(N[C@@H]2C[C@H](CO)[C@@H](O)[C@H]2O)c1-c1nc2ccccc2s1` [Example 1222], the EC90 was more than 5 µM. Same read-out and setting: to `Cc1nc(OCC(F)(F)F)nc(N[C@@H]2C[C@H](CO)[C@@H](O)[C@H]2O)c1-c1nc2ccccc2s1` [Example 1057] belongs more than 5 µM; to `COc1cc2cc(-c3c(C)nc(NCC(C)(C)C)nc3N[C@@H]3C[C@H](CO)[C@@H](O)[C@H]3O)oc2c(C)n1` [Example 1201], 0.5 to 5 µM; to `CCOCCNc1nc(C)c(-c2ccc3ccccc3n2)c(N[C@@H]2C[C@H](CO)[C@@H](O)[C@H]2O)n1` [Example 1324], more than 5 µM. Same read-out and setting: to `Cc1cccc(CNc2nc(C)c(-c3nc4ccccc4s3)c(N[C@@H]3C[C@H](CO)[C@@H](O)[C@H]3O)n2)n1` [Example 1208] belongs 0.5 to 5 µM. Same read-out and setting: to `Cc1nc(Nc2ccccc2)nc(N[C@@H]2C[C@H](CO)[C@@H](O)[C@H]2O)c1-c1nc2cnccc2s1` [Example 1216] belongs 0.5 to 5 µM; to `CCNC[C@H]1C[C@@H](Nc2nc(NCC(F)(F)F)nc(C)c2-c2nc3ccccc3s2)[C@H](O)[C@@H]1O` [Example 1018], 0.5 to 5 µM. On to `Cc1ccc(CNc2nc(C)c(-c3nc4cnccc4s3)c(N[C@@H]3C[C@H](CO)[C@@H](O)[C@H]3O)n2)s1` [Example 539], for which the EC90 was less than 0.5 µM.

As for `COc1ccc2sc(-c3c(C)nc(NCC(F)(F)F)nc3N[C@@H]3C[C@H](CO)[C@@H](O)[C@H]3O)nc2c1` [Example 1010], the EC90 was 0.5 to 5 µM. Still for that read-out and setting: to `COc1cc(CNc2nc(CF)c(-c3nc4ccccc4s3)c(N[C@@H]3C[C@H](CO)[C@@H](O)[C@H]3O)n2)cc(OC)c1` [Example 1121] belongs 0.5 to 5 µM; to `CCc1cc2cc(-c3c(C)nc(O)nc3N[C@@H]3C[C@H](CO)[C@@H](O)[C@H]3O)oc2cn1` [Example 1303], 0.5 to 5 µM. Still for that read-out and setting: to `Cc1cccc(Nc2nc(C)c(-c3nc4ccccc4s3)c(N[C@@H]3C[C@H](CO)[C@@H](O)[C@H]3O)n2)c1` [Example 1046] belongs 0.5 to 5 µM. Same read-out and setting: under `Cc1nc(NCC2CC2)nc(N[C@@H]2C[C@H](CO)[C@@H](S(C)(=O)=O)[C@H]2O)c1-c1nc2ccccc2s1` [Example 1136] stands 0.5 to 5 µM. As to `Cc1nc(NCc2cccc(S(C)(=O)=O)c2)nc(N[C@@H]2C[C@H](CO)[C@@H](O)[C@H]2O)c1-c1nc2ccccc2s1` [Example 1225], the 90% effect concentration (EC90) was 0.5 to 5 µM.

Still in this experiment, the particulars now being: Hepatitis C virus, 72 h, HCV replicon cells, replicon RNA level by real time PCR, harvested day 3; read-out: EC90 (μM) range.
`Cc1nc(N[C@H](C)C2CC2)nc(N[C@@H]2C[C@H](CO)[C@@H](O)C2(C)O)c1-c1nc2cnccc2s1` (stereo partly drawn) [Example 1384]: the EC90 was less than 0.5 µM.

In the case of `CCc1nccc2sc(-c3c(C)nc(N[C@H](C)C4CC4)nc3N[C@@H]3C[C@H](CS(C)(=O)=O)[C@@H](O)[C@H]3O)nc12` [Example 1382], the EC90 was less than 0.5 µM. The same measure, in the same setting: to `Cc1nc(N[C@H](C)c2cccc(F)c2)nc(N[C@@H]2C[C@H](CO)[C@@H](O)[C@H]2O)c1-c1nc2c(C)nccc2s1` [Example 1524] belongs less than 0.5 µM; to `Cc1nc(N[C@H](C)c2ccc(OC(F)F)cc2)nc(N[C@@H]2C[C@H](CO)[C@@H](O)[C@H]2O)c1-c1nc2c(C)nccc2s1` [Example 1545], less than 0.5 µM. On the same count and under the same terms, to `Cc1nc(NCC(F)(F)F)nc(N[C@@H]2CC[C@@H](O)[C@@]2(C)O)c1-c1nc2c(C)nccc2s1` [Example 1816] belongs less than 0.5 µM. For `Cc1nc(NCC(F)(F)F)nc(N[C@@H]2C[C@H](Cn3ccnn3)[C@@H](O)[C@H]2O)c1-c1nc2ccccc2s1` [Example 1538], the EC90 is less than 0.5 µM. On the same count and under the same terms, to `CCCc1nccc2sc(-c3c(C)nc(NCC4CC4)nc3N[C@@H]3C[C@H](CO)[C@@H](O)[C@H]3O)nc12` [Example 1369] belongs less than 0.5 µM. Still for that read-out and setting: to `Cc1nc(NCC(F)(F)F)nc(N[C@@H]2C[C@H](C)[C@@H](O)[C@H]2O)c1-c1nc2cnccc2s1` [Example 1633] belongs less than 0.5 µM.

Consider `Cc1nc(N[C@H](C)C(F)(F)F)nc(N[C@@H]2C[C@H](CO)[C@@H](O)[C@H]2O)c1-c1nc2c(C)nccc2s1` [Example 1351], for which the EC90 is less than 0.5 µM. On the same count and under the same terms, to `Cc1nc(NCc2ccc3[nH]cnc3c2)nc(N[C@@H]2C[C@H](CO)[C@@H](O)[C@H]2O)c1-c1nc2ccccc2s1` [Example 1912] belongs less than 0.5 µM; to `Cc1cc(NCC2CC2)nc(N[C@@H]2C[C@H](CO)[C@@H](O)[C@H]2O)c1-c1nc2ccccc2s1` [Example 1616], more than 5 µM. As to `Cc1ccc([C@@H](C)Nc2nc(C)c(-c3nc4cnccc4s3)c(N[C@@H]3C[C@H](CS(C)(=O)=O)[C@@H](O)[C@H]3O)n2)cc1` [Example 1368], the EC90 was less than 0.5 µM. On the same count and under the same terms, to `Cc1nc(NCC(F)(F)F)nc(N[C@@H]2C[C@H](CNS(=O)(=O)CCN)[C@@H](O)[C@H]2O)c1-c1nc2ccccc2s1` [Example 1518] belongs more than 5 µM; to `Cc1nc(N[C@H](C)c2ccc(-n3cccn3)cc2)nc(N[C@@H]2C[C@H](CO)[C@@H](O)[C@H]2O)c1-c1nc2ccccc2s1` [Example 1365], less than 0.5 µM. Still for that read-out and setting: under `Cc1nc(NCC(F)(F)F)nc(N[C@@H]2C[C@H](C(O)c3nccn3C)[C@@H](O)[C@H]2O)c1-c1nc2ccccc2s1` (stereo partly drawn) [Example 1653] stands less than 0.5 µM; under `Cc1nc(NC2CCC2)nc(N[C@@H]2C[C@H](CO)[C@@H](O)[C@H]2O)c1-c1nc2c(C)nccc2s1` [Example 1544], less than 0.5 µM.
